pIC50: −log10 of the molar value. Read-outs that look alike come from different tables or passages of the source.
How the values were obtained:
c-kit = target: T1, c-kit (Homo sapiens, UniProt P10721); test: Inhibitory activity against c-kit autophosphorylation (MO7e cells, h-SCF); format: cell-based; details: for pIC50: MO7e cells, read-out: c-kit IC50; for inhibition at 1 µM: Mo7e, at 1000 nM
T1 construct: MO7e (human megakaryocytic leukemia cell line) which had been arrested for 20 hr; endogenous in cells; host or cells: MO7e human megakaryocytic leukemia cell line
Method in brief: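 In this cellular autophosphorylation assay, compound-treated MO7e cells (1 hr) were challenged with human stem cell factor at 50 ng/ml for 5 min; detection relied on PY-20 capture and anti-c-kit/HRP immunodetection at 450 nm.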

PDGF-Ra = target: T2, PDGF-Ra (Homo sapiens, UniProt P16234); test: Inhibitory activity against PDGF-Ra phosphorylation by PDGF-AA stimulation using G292; format: cell-based; details: for pIC50: > means inhibition at indicated concentration not more than 50%, < and << not less than 50%, read-out: PDGF (E) IC50; for inhibition at 0.1 µM: G292, at 100 nM, read-out: PDGF (E) inhibition (%) at 100 nM
T2 construct: host or cells: G-292 human osteosarcoma cells
Method in brief: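 In G-292 osteosarcoma cells kept overnight in 0.1% FBS, compound exposure (1 hr, 37 °C) preceded PDGF-AA stimulation at 50 ng/ml for 5 min; receptor phosphotyrosine was then detected by PY-20 capture ELISA.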

[1] = figure within parentheses in −( ) or >1000( )
[2] = figure in parentheses in >100( )

T2 sequence (P16234 24-1089): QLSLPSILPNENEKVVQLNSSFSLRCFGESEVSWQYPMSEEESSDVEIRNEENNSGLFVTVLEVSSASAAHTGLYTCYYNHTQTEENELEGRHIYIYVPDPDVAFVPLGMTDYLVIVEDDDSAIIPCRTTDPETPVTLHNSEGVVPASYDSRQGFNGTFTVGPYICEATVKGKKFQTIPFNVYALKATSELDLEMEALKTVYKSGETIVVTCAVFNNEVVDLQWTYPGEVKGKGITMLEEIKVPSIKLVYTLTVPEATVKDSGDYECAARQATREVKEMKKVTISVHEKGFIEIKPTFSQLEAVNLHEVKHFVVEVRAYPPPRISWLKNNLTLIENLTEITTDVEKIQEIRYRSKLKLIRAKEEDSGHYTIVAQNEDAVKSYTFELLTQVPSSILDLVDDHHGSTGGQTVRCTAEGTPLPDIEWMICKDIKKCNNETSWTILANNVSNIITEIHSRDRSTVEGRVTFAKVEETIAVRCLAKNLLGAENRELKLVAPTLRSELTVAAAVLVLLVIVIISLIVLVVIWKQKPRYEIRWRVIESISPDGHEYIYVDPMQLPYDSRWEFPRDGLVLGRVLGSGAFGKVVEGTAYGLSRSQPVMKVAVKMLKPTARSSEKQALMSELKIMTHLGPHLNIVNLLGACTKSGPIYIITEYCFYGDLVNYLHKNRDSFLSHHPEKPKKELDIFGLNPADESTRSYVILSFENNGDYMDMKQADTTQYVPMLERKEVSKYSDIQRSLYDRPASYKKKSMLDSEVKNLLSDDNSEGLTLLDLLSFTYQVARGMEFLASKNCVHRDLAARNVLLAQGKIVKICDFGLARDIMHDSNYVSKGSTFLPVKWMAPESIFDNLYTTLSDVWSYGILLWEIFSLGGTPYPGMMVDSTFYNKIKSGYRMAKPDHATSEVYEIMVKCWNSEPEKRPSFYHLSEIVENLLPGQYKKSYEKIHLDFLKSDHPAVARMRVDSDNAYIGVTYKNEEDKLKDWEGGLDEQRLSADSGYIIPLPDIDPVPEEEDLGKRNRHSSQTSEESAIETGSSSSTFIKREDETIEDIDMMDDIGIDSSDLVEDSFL
T1 sequence (P10721 26-976): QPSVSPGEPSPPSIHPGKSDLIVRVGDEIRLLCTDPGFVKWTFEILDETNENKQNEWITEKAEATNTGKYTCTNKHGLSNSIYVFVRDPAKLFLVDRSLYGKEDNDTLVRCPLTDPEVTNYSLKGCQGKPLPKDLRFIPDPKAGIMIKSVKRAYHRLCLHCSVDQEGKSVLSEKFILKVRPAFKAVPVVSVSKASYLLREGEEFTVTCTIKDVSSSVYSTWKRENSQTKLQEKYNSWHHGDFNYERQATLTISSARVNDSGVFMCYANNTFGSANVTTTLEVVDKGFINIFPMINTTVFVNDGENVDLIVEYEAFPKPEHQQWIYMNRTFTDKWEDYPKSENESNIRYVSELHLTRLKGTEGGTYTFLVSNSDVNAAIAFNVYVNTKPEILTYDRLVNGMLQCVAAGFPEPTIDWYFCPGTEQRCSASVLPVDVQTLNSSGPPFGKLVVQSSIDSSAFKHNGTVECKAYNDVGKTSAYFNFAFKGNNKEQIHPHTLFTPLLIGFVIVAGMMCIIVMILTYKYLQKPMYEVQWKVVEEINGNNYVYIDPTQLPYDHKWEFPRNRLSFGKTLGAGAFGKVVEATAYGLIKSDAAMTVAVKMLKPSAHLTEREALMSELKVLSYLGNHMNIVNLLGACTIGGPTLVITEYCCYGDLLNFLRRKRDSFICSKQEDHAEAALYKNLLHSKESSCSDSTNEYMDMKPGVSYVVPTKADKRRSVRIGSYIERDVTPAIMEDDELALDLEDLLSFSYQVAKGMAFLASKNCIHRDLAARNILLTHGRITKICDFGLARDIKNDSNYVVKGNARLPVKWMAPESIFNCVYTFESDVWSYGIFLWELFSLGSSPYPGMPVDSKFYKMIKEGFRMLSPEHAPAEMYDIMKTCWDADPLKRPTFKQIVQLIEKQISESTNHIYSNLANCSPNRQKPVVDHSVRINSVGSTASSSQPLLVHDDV

## COc1cc2nccc(Oc3cc(C)c(NC(=O)Oc4c(C)cccc4C)cc3C)c2cc1OC [Example 270, 2,6-Dimethylphenyl N-{4-[(6,7-dimethoxy-4-quinolyl)oxy]-2,5-dimethylphenyl}carbamate]
c-kit; h-SCF 50 ng/ml
  pIC50: 6.33
PDGF-Ra; Pharmacological Test Example 1
  pIC50: 7.19

## COc1cc2ncnc(Oc3ccc(NC(=O)OCCCSc4ccc(C)cc4)c(Cl)c3)c2cc1OC [Example 41, 3-[(4-Methylphenyl)sulfanyl)propyl N-{2-chloro-4-[(6,7-dimethoxy-4-quinazolinyl)oxy]phenyl}-carbamate]
c-kit; h-SCF 50 ng/ml
  pIC50: 6.73
PDGF-Ra; Pharmacological Test Example 1
  pIC50: > 8.00

## COc1cc2nccc(Oc3cc(C)c(NC(=O)OCCc4cccc(C(F)(F)F)c4)cc3C)c2cc1OC [Example 84, 3-(Trifluoromethyl)phenethyl N-{4-[(6,7-dimethoxy-4-quinolyl)oxy]-2,5-dimethylphenyl}carbamate]
c-kit; h-SCF 50 ng/ml
  pIC50: 6.40
PDGF-Ra; Pharmacological Test Example 1
  pIC50: 7.57

## COc1cc2nccc(Oc3ccc(NC(=S)NC(=O)c4ccc(CCl)cc4)cc3F)c2cc1OC [Example 1000, N-[4-(Chloromethyl)benzoyl]-N′-{4-[(6,7-dimethoxy-4-quinolyl)oxy]-3-fluorophenyl}thiourea]
c-kit; h-SCF stimulation
  pIC50: 6.11
PDGF-Ra
  pIC50: 8.52

## COc1cc2nccc(Oc3ccc(NC(=O)OCCCN4CCCCC4)c(C)c3C)c2cc1OC [Example 415, 3-Piperidinopropyl N-{4-[(6,7-dimethoxy-4-quinolyl)oxy]-2,3-dimethylphenyl}carbamate]
c-kit; 50 ng/ml h-SCF
  pIC50: 7.01
PDGF-Ra
  pIC50: 7.62

## COc1ccc(COC(=O)Nc2cc(C)c(Oc3ccnc4cc(OC)c(OC)cc34)cc2C)cc1OC [Example 64, 3,4-Dimethoxybenzyl N-{4-[(6,7-dimethoxy-4-quinolyl)oxy]-2,5-dimethylphenyl}carbamate]
c-kit; h-SCF 50 ng/ml
  pIC50: 6.37
PDGF-Ra; Pharmacological Test Example 1
  pIC50: 7.05

## COc1cc2nccc(Oc3ccc(NC(=S)NC(=O)c4ccccc4C)c([N+](=O)[O-])c3)c2cc1OC [Example 925, N-{4-[(6,7-Dimethoxy-4-quinolyl)oxy]-2-nitrophenyl}-N′-(2-methylbenzoyl)thiourea]
c-kit; h-SCF stimulation
  pIC50: 6.37
PDGF-Ra
  pIC50: 7.46

## COc1cc2nccc(Oc3ccc(NC(=S)NC(=O)c4ccccc4Cl)c(Cl)c3)c2cc1OC [Example 1104, N-(2-Chlorobenzoyl)-N′-{2-chloro-4-[(6,7-dimethoxy-4-quinolyl)oxy]phenyl}thiourea]
c-kit; figure in parentheses in −( )
  inhibition at 1 µM: 23%
PDGF-Ra
  pIC50: 7.11

## COc1cc2nccc(Oc3ccc(NC(=S)NC(=O)CC4CCCCC4)cc3)c2cc1OC [Example 1023, N-(2-Cyclohexylacetyl)-N′-{4-[(6,7-dimethoxy-4-quinolyl)oxy]phenyl}thiourea]
c-kit; h-SCF stimulation
  pIC50: 6.94
PDGF-Ra
  pIC50: 7.66

## COc1cc2nccc(Oc3ccc(NC(=O)OC(C)c4ccccc4Cl)c(C)c3C)c2cc1OC (centres unmarked) [Example 14, 1-(2-Chlorophenyl)ethyl N-{4-[(6,7-dimethoxy-4-quinolyl)oxy]-2,3-dimethylphenyl}carbamate]
c-kit; h-SCF 50 ng/ml
  pIC50: 6.68
PDGF-Ra; Pharmacological Test Example 1
  pIC50: 7.92

## CCN(CC)CCNC(=O)Nc1ccc(Oc2ccnc3cc(OC)c(OC)cc23)c(C)c1C [Example 624, N-[2-(Diethylamino)ethyl]-N′-{4-[(6,7-dimethoxy-4-quinolyl)oxy]-2,3-dimethylphenyl}urea]
c-kit; 50 ng/ml h-SCF
  pIC50: 6.36
PDGF-Ra
  pIC50: 7.47

## COc1cc2nccc(Oc3ccc(NC(=O)OCc4ccc(C)cc4)cc3)c2cc1OC [Example 252, 4-Methylbenzyl N-{4-[(6,7-dimethoxy-4-quinolyl)oxy]phenyl}carbamate]
c-kit; h-SCF 50 ng/ml
  pIC50: 6.95
PDGF-Ra; Pharmacological Test Example 1
  pIC50: 8.22

## CCCC1CCC(C(=O)NC(=S)Nc2ccc(Oc3ccnc4cc(OC)c(OC)cc34)c(Cl)c2)CC1 (centres unmarked) [Example 1196, N-{3-Chloro-4-[(6,7-dimethoxy-4-quinolyl)oxy]phenyl}-N′-[(4-propylcyclohexyl)carbonyl]thiourea]
c-kit; h-SCF stimulation
  pIC50: 6.15
PDGF-Ra
  pIC50: < 7.00

## COc1cc2nccc(Oc3ccc(NC(=O)OCC4CC4)c(C)c3C)c2cc1OC [Example 382, Cyclopropylmethyl N-{4-[(6,7-dimethoxy-4-quinolyl)oxy]-2,3-dimethylphenyl}carbamate]
c-kit; h-SCF 50 ng/ml
  pIC50: 7.55
PDGF-Ra; Pharmacological Test Example 1
  pIC50: > 8.00

## COc1cc2nccc(Oc3ccc(NC(=S)NC(=O)CCSC)c(C)c3)c2cc1OC [Example 696, N-{4-[(6,7-Dimethoxy-4-quinolyl)oxy]-2-methylphenyl}-N′-[3-(methylthio)propanoyl]-thiourea]
c-kit; [1]
  inhibition at 1 µM: 35%
PDGF-Ra
  pIC50: < 7.00
PDGF-Ra; figure within parentheses in >100( )
  inhibition at 0.1 µM: 37%

## COc1cc2ncnc(Oc3ccc(NC(=O)OC(C)c4cccc(Cl)c4)cc3)c2cc1OC (centres unmarked) [Example 6, 1-(3-Chlorophenyl)ethyl N-{4-[(6,7-dimethoxy-4-quinazolinyl)oxy]phenyl}carbamate]
c-kit; h-SCF 50 ng/ml
  pIC50: 6.76
PDGF-Ra; Pharmacological Test Example 1
  pIC50: > 8.00

## COc1cc2nccc(Oc3cc(C)c(NC(=O)OCc4ccc5ccccc5c4)cc3C)c2cc1OC [Example 246, 2-Naphthylmethyl N-{4-[(6,7-dimethoxy-4-quinolyl)oxy]-2,5-dimethylphenyl}carbamate]
c-kit; h-SCF 50 ng/ml
  pIC50: 6.61
PDGF-Ra; Pharmacological Test Example 1
  pIC50: 7.24

## COc1cc2nccc(Oc3ccc(NC(=S)NC(=O)c4ccc(C)cc4)cc3)c2cc1OC [Example 959, N-{4-[(6,7-Dimethoxy-4-quinolyl)oxy]phenyl}-N′-(4-methylbenzoyl)thiourea]
c-kit; h-SCF stimulation
  pIC50: 6.52
PDGF-Ra
  pIC50: > 8.00

## COc1cc2nccc(Oc3ccc(NC(=O)OCCSc4cc(C)ccc4C)c(C)c3C)c2cc1OC [Example 166, 2-[(2,5-Dimethylphenyl)sulfanyl]ethyl N-{4-[(6,7-dimethoxy-4-quinolyl)oxy]-2,3-dimethylphenyl}carbamate]
c-kit; h-SCF 50 ng/ml
  pIC50: 6.84
PDGF-Ra; Pharmacological Test Example 1
  pIC50: 7.47

## COc1cc2ncnc(Oc3ccc(NC(=S)NCCN4CCCCC4)cc3)c2cc1OC [Example 517, N-{4-[(6,7-Dimethoxy-4-quinazolinyl)oxy]phenyl}-N′-[2-(1-piperidinyl)ethyl]thiourea]
c-kit; [1]
  inhibition at 1 µM: 33%
PDGF-Ra
  pIC50: 7.42

## CCCCCCCCCCCCCCCCCCOC(=O)Nc1cc(C)c(Oc2ccnc3cc(OC)c(OC)cc23)cc1C [Example 327, Octadecyl N-{4-[(6,7-dimethoxy-4-quinolyl)oxy]-2,5-dimethylphenyl}carbamate]
c-kit; figure in parentheses in −( )
  inhibition at 1 µM: 6%
PDGF-Ra; [2]
  inhibition at 0.1 µM: 30%
PDGF-Ra; Pharmacological Test Example 1
  pIC50: < 7.00

## COc1cc2nccc(Oc3ccc(NC(=S)NC(=O)COCc4ccccc4)cc3F)c2cc1OC [Example 1032, N-[2-(Benzyloxy)acetyl]-N′-{4-[(6,7-dimethoxy-4-quinolyl)oxy]-3-fluorophenyl}thiourea]
c-kit; h-SCF stimulation
  pIC50: 6.49
PDGF-Ra
  pIC50: > 8.00

## COc1cc2nccc(Oc3cc(C)c(NC(=O)OCc4cccc(Cl)c4)cc3C)c2cc1OC [Example 242, 3-Chlorobenzyl N-{4-[(6,7-dimethoxy-4-quinolyl)oxy]-2,5-dimethylphenyl}carbamate]
c-kit; h-SCF 50 ng/ml
  pIC50: 6.72
PDGF-Ra; Pharmacological Test Example 1
  pIC50: 7.68

## COc1cc2nccc(Oc3ccc(NC(=O)OCCCOc4ccccc4Cl)cc3)c2cc1OC [Example 26, 3-(2-Chlorophenoxy)propyl N-{4-[(6,7-dimethoxy-4-quinolyl)oxy]phenyl}carbamate]
c-kit; h-SCF 50 ng/ml
  pIC50: 7.36
PDGF-Ra; Pharmacological Test Example 1
  pIC50: > 8.00

## COc1cc2nccc(Oc3ccc(NC(=S)NC(=O)C4(C)CC4(Cl)Cl)cc3Cl)c2cc1OC (centres unmarked) [Example 750, N-{3-Chloro-4-[(6,7-dimethoxy-4-quinolyl)oxy]phenyl}-N′-[(2,2-dichloro-1-methylcyclopropyl)carbonyl]thiourea]
c-kit; [1]
  inhibition at 1 µM: 43%
PDGF-Ra
  pIC50: 7.77

## COc1cc2nccc(Oc3ccc(NC(=O)NCCN(C(C)C)C(C)C)c(C)c3C)c2cc1OC [Example 655, N-[2-(Diisopropylamino)ethyl]-N′-{4-[(6,7-dimethoxy-4-quinolyl)oxy]-2,3-dimethylphenyl}urea]
c-kit; [1]
  inhibition at 1 µM: 43%
PDGF-Ra
  pIC50: 7.37

## COc1cc2ncnc(Oc3ccc(NC(=O)OC(C)c4cccc(C(F)(F)F)c4)c(Cl)c3)c2cc1OC (centres unmarked) [Example 91, 1-[3-(Trifluoromethyl)phenyl]ethyl N-{2-chloro-4-[(6,7-dimethoxy-4-quinazolinyl)oxy]phenyl}carbamate]
c-kit; figure in parentheses in −( )
  inhibition at 1 µM: 20%
PDGF-Ra; Pharmacological Test Example 1
  pIC50: 7.85

## COc1ccc(COC(=O)Nc2ccc(Oc3ccnc4cc(OC)c(OC)cc34)c(C)c2C)cc1OC [Example 63, 3,4-Dimethoxybenzyl N-{4-[(6,7-dimethoxy-4-quinolyl)oxy]-2,3-dimethylphenyl}carbamate]
c-kit; h-SCF 50 ng/ml
  pIC50: 6.68
PDGF-Ra; Pharmacological Test Example 1
  pIC50: 7.80

## COc1cc2nccc(Oc3ccc(NC(=O)OCCOc4cccc(F)c4)cc3)c2cc1OC [Example 207, 2-(3-Fluorophenoxy)ethyl N-{4-[(6,7-dimethoxy-4-quinolyl)oxy]phenyl}carbamate]
c-kit; h-SCF 50 ng/ml
  pIC50: 7.26
PDGF-Ra; Pharmacological Test Example 1
  pIC50: 7.51

## COc1cc2nccc(Oc3ccc(NC(=S)NC(=O)c4ccc5c(c4)OCO5)cc3Cl)c2cc1OC [Example 1126, N-(1,3-Benzodioxol-5-ylcarbonyl)-N′-{3-chloro-4-[(6,7-dimethoxy-4-quinolyl)oxy]phenyl}thiourea]
c-kit; figure in parentheses in −( )
  inhibition at 1 µM: 35%
PDGF-Ra
  pIC50: < 7.00
PDGF-Ra; [2]
  inhibition at 0.1 µM: 70%

## COc1cc2nccc(Oc3ccc(NC(=O)OCCN4CCCCC4)c(C)c3C)c2cc1OC [Example 305, 2-Piperidinoethyl N-{4-[(6,7-dimethoxy-4-quinolyl)oxy]-2,3-dimethylphenyl}carbamate]
c-kit; h-SCF 50 ng/ml
  pIC50: 6.66
PDGF-Ra; Pharmacological Test Example 1
  pIC50: 7.96

— US7135466B2 (Kirin Beer Kabushiki Kaisha, priority 1999, dated 2006)
